Results from patent US20250215029A1 (Recludix Pharma, Inc., priority 2022, published 2025).
Like-named read-outs stand apart in the source and are kept apart here.

Key:
[1] = target: T1, Recombinant STAT3 protein (STAT3 (G127-I722)) (Homo sapiens, UniProt P40763); test: STAT3 Fluorescence Polarization (FP) Assay; assay type: binding; settings: probe 5-FAM-GpYLPQTV-NH2 2 nM, 45-minute incubation
T1 construct: Recombinant STAT3 protein (STAT3 (G127-I722))
Procedure, shortened: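 In this competition FP format, STAT3 residues G127-I722 (25 nM) and 2 nM 5-FAM-GpYLPQTV-NH2 met test compounds for 45 min at room temperature. IC50 values result from fitting mP signal against log concentration by nonlinear regression.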

[2] = target: T2, Recombinant STAT6 protein (STAT6 (W123-T658)) (Homo sapiens, UniProt P42226); test: STAT6 Fluorescence Polarization (FP) Assay; assay type: binding; settings: 45-minute incubation
T2 construct: Recombinant STAT6 protein (STAT6 (W123-T658))
T2 sequence (P42226 123-658): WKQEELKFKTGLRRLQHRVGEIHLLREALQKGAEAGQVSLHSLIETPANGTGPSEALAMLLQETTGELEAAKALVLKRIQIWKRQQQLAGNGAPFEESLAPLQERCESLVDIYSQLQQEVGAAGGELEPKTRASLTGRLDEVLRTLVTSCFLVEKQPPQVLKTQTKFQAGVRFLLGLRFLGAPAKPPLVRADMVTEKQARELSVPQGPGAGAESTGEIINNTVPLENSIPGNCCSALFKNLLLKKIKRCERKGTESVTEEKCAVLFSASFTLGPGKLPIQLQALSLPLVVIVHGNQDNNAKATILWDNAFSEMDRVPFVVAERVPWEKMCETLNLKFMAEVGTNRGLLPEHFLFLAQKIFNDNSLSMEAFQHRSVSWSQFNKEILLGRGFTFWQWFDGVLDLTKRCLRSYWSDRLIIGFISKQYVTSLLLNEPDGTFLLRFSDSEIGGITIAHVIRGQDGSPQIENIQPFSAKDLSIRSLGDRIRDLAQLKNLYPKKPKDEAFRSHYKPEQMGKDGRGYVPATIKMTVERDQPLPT
Procedure, shortened: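 Fluorescence polarization (mP) read-out: 250 nM STAT6 (W123-T658) plus 2 nM 5-FAM phosphotyrosine peptide, 45 min, room temperature, 1% DMSO. IC50 by nonlinear fit of mP against log compound concentration.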

[3] = STAT3 (G127-I722) 25 nM, read-out: STAT3 (FP assay IC50 class)
[4] = STAT6 (W123-T658) 250 nM, probe 5-FAM-Ap[…]-NH2 2 nM, read-out: STAT6 (FP assay IC50 class)
[5] = STAT3 25 nM, read-out: STAT3 (FP assay IC50)
[6] = STAT6 250 nM, probe 5-FAM-Ap[…]-NH2 2 nM, read-out: STAT6 (FP assay IC50)

T1 sequence (P40763 127-722): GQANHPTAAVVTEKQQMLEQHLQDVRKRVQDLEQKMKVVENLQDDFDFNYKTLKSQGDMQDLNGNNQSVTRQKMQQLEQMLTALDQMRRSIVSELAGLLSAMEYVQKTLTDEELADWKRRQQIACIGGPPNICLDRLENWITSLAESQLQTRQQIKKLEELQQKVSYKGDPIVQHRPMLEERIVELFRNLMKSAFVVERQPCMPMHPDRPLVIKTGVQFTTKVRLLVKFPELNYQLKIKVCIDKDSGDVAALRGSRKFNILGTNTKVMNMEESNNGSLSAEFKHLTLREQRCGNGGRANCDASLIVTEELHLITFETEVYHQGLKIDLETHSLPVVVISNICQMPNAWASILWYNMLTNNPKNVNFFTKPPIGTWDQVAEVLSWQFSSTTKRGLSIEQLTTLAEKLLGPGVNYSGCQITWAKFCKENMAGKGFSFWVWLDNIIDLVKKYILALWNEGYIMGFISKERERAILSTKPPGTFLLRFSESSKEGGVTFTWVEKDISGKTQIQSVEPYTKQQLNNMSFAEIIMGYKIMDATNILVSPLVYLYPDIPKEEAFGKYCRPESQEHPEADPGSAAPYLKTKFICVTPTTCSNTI

Row | Compound | IC50 [1, 3] | IC50 [2, 4] | IC50 ([2]; STAT6 (W123-T658) 250 nM, probe 5-FAM-ApYKPFQDLI-NH2 2 nM, read-out: STAT6 (FP assay IC50 class)) | IC50 [1, 5] | IC50 [2, 6]
1 | O=C(N[C@H]1CCCC[C@H]2CC[C@@H](C(=O)N3C[C@@H](c4cccnc4)CC34CC4)N2C1=O)c1cc2cc(CP(=O)(O)O)ccc2s1 [Compound 244, ((2-(((3S,6S,10aS)-5-ox0-3-((R)-6-(pyridin-3-yl)-4-azaspiro[2.4]heptane-4-carbonyl)decahydropyrrolo[1,2-a]azocin-6-yl)carbamoyl)benzo[b]thiophen-5-yl)methyl)phosphonic acid] | 1 to 10 µM | 0.3 to 3 µM |  |  | 
2 | O=C(N[C@H]1C/C=C\C[C@@H]2[C@H](O)C[C@@H](C(=O)N3CC(C(=O)N4CCOCC4)C3)N2C1=O)c1cc2cc(C(F)(F)P(=O)(O)O)ccc2s1 [Compound 730, (difluoro(2-(((1R,3S,6S,10aR,Z)-1-hydroxy-3-(3-(morpholine-4-carbonyl)azetidine-1-carbonyl)-5-oxo-1,2,3,5,6,7,10,10a-octahydropyrrolo[1,2-a]azocin-6-yl)carbamoyl)benzo [b]thiophen-5-yl)methyl) phosphonic acid] | 1 to 10 µM | 3 to 30 µM |  |  | 
3 | COC1(c2cnccc2C)CN(C(=O)[C@@H]2CC[C@@H]3CCCC[C@H](NC(=O)c4cc5cc(C(F)(F)P(=O)(O)O)ccc5s4)C(=O)N32)C1 [Compound 501, (difluoro(2-(((3S,6S,10aS)-3-(3-methoxy-3-(4-methylpyridin-3-yl)azetidine-1-carbonyl)-5-oxodecahydropyrrolo[1,2-a]azocin-6-yl)carbamoyl)benzo[b]thiophen-5-yl)methyl)phosphonic acid] | 0.1 to 1 µM | 3 to 30 µM |  |  | 
4 | Cc1cncnc1C1CN(C(=O)[C@@H]2CC[C@@H]3CCC[C@H](NC(=O)c4cc5cc(CP(=O)(O)O)ccc5s4)C(=O)N32)C1 [Compound 650, ((2-(((3S,6S,9aS)-3-(3-(5-methylpyrimidin-4-yl)azetidine-1-carbonyl)-5-oxooctahydro-1H-pyrrolo[1,2-a]azepin-6-yl)carbamoyl)benzo [b]thiophen-5-yl)methyl) phosphonic acid] | 1 to 10 µM | 3 to 30 µM |  |  | 
5 | O=C(N[C@H]1CCCC[C@H]2CC[C@@H](C(=O)NCc3ccc4nccnc4c3)N2C1=O)c1cc2cc(C(F)(F)P(=O)(O)O)ccc2s1 [Compound 825, (difluoro(2-(((3S,6S,10aS)-5-oxo-3-((quinoxalin-6-ylmethyl)carbamoyl)decahydropyrrolo [1,2-a]azocin-6-yl)carbamoyl)benzo [b]thiophen-5-yl)methyl) phosphonic acid] | 0.1 to 1 µM | 0.3 to 3 µM |  |  | 
6 | Cn1ncc(F)c1C1CN(C(=O)[C@@H]2CC[C@@H]3CCC[C@H](NC(=O)c4cc5cc(C(F)P(=O)(O)O)ccc5s4)C(=O)N32)C1 (stereo partly drawn) [Compound 751, (fluoro(2-(((3S,6S,9aS)-3-(3-(4-fluoro-1-methyl-1H-pyrazol-5-yl)azetidine-1-carbonyl)-5-oxooctahydro-1H-pyrrolo[1,2-a]azepin-6-yl)carbamoyl)benzo [b]thiophen-5-yl)methyl) phosphonic acid] | 0.1 to 1 µM | 3 to 30 µM |  |  | 
7 | O=C(N[C@H]1CCC[C@H]2CC[C@@H](C(=O)N3CCn4cncc4C3)N2C1=O)c1cc2cc(C(F)(F)P(=O)(O)O)ccc2s1 [Compound 203, (difluoro(2-(((3S,6S,9aS)-5-oxo-3-(5,6,7,8-tetrahydroimidazo[1,5-a]pyrazine-7-carbonyl)octahydro-1H-pyrrolo[1,2-a]azepin-6-yl)carbamoyl)benzo[b]thiophen-5-yl)methyl)phosphonic acid] | 0.1 to 1 µM | 0.3 to 3 µM |  |  | 
8 | CN(Cc1cc[nH]c(=O)c1)C(=O)[C@@H]1CC[C@@H]2CCCC[C@H](NC(=O)c3cc4cc(C(F)(F)P(=O)(O)O)ccc4s3)C(=O)N21 [Compound 800, (difluoro(2-(((3S,6S,10aS)-3-(methyl((2-oxo-1,2-dihydropyridin-4-yl)methyl)carbamoyl)-5-oxodecahydropyrrolo [1,2-a]azocin-6-yl)carbamoyl)benzo [b]thiophen-5-yl)methyl) phosphonic acid] | 1 to 10 µM | 0.3 to 3 µM |  |  | 
9 | Cc1ccncc1C1CN(C(=O)[C@@H]2CC[C@@H]3CCCC[C@H](NC(=O)c4cc5cc(C(F)(F)P(=O)(O)O)ccc5s4)C(=O)N32)C1 [Compound 499, (difluoro(2-(((3S,6S,10aS)-3-(3-(4-methylpyridin-3-yl)azetidine-1-carbonyl)-5-oxodecahydropyrrolo[1,2-a]azocin-6-yl)carbamoyl)benzo[b]thiophen-5-yl)methyl)phosphonic acid] | < 0.1 µM | 0.3 to 3 µM |  |  | 
10 | O=C(N[C@H]1CCC[C@H]2CC[C@@H](C(=O)N3CC(c4cc(O)ccn4)C3)N2C1=O)c1cc2cc(CP(=O)(O)O)ccc2s1 [Compound 543, ((2-(((3S,6S,9aS)-3-(3-(4-hydroxypyridin-2-yl)azetidine-1-carbonyl)-5-oxooctahydro-1H-pyrrolo[1,2-a]azepin-6-yl)carbamoyl)benzo[b]thiophen-5-yl)methyl)phosphonic acid] | 1 to 10 µM | 3 to 30 µM |  |  | 
11 | CN(C)c1c(F)cncc1C1CN(C(=O)[C@@H]2CC[C@@H]3CCC[C@H](NC(=O)c4cc5cc([C@H](F)P(=O)(O)O)ccc5s4)C(=O)N32)C1 (single isomer, unassigned) [Compound 685] | < 0.1 µM | 3 to 30 µM |  |  | 
12 | (difluoro(2- (((3S,6S,10aS)-3- ((1R,5S,6S)-6-(5- methyl-1,3,4- oxadiazol-2-yl)-3- azabicyclo[3.1.0] hexane-3- carbonyl)-5- oxodecahydropyrrolo [1,2-a]azocin-6- yl)carbamoyl)benzo [b]thiophen-5- yl)methyl)phosphon ic acid [Compound 804] | 0.1 to 1 µM |  | 0.3 to 3 µM |  | 
13 | N=S1(=O)CC2(CN(C(=O)[C@@H]3CC[C@@H]4CCCC[C@H](NC(=O)c5cc6cc(C(F)(F)P(=O)(O)O)ccc6s5)C(=O)N43)C2)C1 [Compound 70, (difluoro(2-(((3S,6S,10aS)-3-(2-imino-2-oxido-2l6-thia-6-azaspiro[3.3]heptane-6-carbonyl)-5-oxodecahydropyrrolo [1,2-a]azocin-6-yl)carbamoyl)benzo[b]thiophen-5-yl)methyl) phosphonic acid] |  |  |  | 0.1 to 1 µM | 3 to 30 µM
14 | O=C(N[C@H]1CCCC[C@H]2CC[C@@H](C(=O)N3CCC(c4cccnc4)C3)N2C1=O)c1ccc2ccc(C(F)(F)P(=O)(O)O)cc2c1 (stereo partly drawn) [Compound 218, (difluoro(7-(((3S,6S,10aS)-5-oxo-3-(3-(pyridin-3-yl)pyrrolidine-1-carbonyl)decahydropyrrolo[1,2-a]azocin-6-yl)carbamoyl)naphthalen-2-yl)methyl)phosphonic acid] | 0.1 to 1 µM | ≤ 0.3 µM |  |  | 
15 | O=C(N[C@H]1C[C@H](O)CC[C@H]2CC[C@@H](C(=O)N3CC(C(=O)N4CCOCC4)C3)N2C1=O)c1cc2cc(C(F)(F)P(=O)(O)O)ccc2s1 [Compound 3, (difluoro(2-(((3S,6S,8R, 10aR)-8-hydroxy-3-(3-(morpholine-4-carbonyl)azetidine-1-carbonyl)-5-oxodeca-hydropyrrolo[1,2-a]azocin-6-yl)carbamoyl)benzo[b]thiophen-5-yl)methyl)phosphonic acid] |  |  |  | 0.1 to 1 µM | 3 to 30 µM
16 | O=C(N[C@H]1CCCC[C@H]2CC[C@@H](C(=O)NC3CN(C(=O)OCc4ccccc4)C3)N2C1=O)c1cc2cc(C(F)P(=O)(O)O)ccc2s1 (stereo partly drawn) [Compound 524, ((2-(((3S,6S,10aS)-3-((1-((benzyloxy)carbonyl)azetidin-3-yl)carbamoyl)-5-oxodecahydropyrrolo[1,2-a]azocin-6-yl)carbamoyl)benzo[b]thiophen-5-yl)fluoromethyl)phosphonic acid] | 0.1 to 1 µM | 0.3 to 3 µM |  |  | 
17 | Cc1c(F)cncc1C1CN(C(=O)[C@@H]2CC[C@@H]3CCC[C@H](NC(=O)c4cc5cc(CP(=O)(O)O)ccc5s4)C(=O)N32)C1 [Compound 504, ((2-(((3S,6S,9aS)-3-(3-(5-fluoro-4-methylpyridin-3-yl)azetidine-1-carbonyl)-5-oxooctahydro-1H-pyrrolo[1,2-a]azepin-6-yl)carbamoyl)benzo[b]thiophen-5-yl)methyl)phosphonic acid] | 1 to 10 µM | 3 to 30 µM |  |  | 
